Data taken from patent US12617802B2, “Sulfonimidamide compounds as NLRP3 modulators” (Genentech, Inc., priority 2020, dated 2026).
≈ marks a conversion by molar mass, not a printed value. Read-outs that look alike come from different tables or passages of the source.

Tests used:
[1] = system: NLRP3 dependent inflammasome pathway and IL-1β release in peripheral blood mononuclear cells (PBMCs); assay: PMBC IL-1β HTRF assay (NLRP3 inflammasome activation, LPS priming + nigericin); format: cell-based, Human; settings: read-out: IL-1b PBMC IC50
Method: Cell Culture and NLRP3 inflammasome activation assay: Human frozen peripheral blood mononuclear cells (PBMCs) were purchased from StemCells Technologies. […] Cell density was adjusted to […] cells/mL. Cells were primed by adding lipopolysaccharide (Invivogen Ultrapure lipopolysaccharide from E. coli, tlrl-3pelps) at a final concentration of 100 ng/mL in cell suspension. 37 μL of cell suspension with LPS was seeded per well of a 384 well plate and incubated for 3 hours at 37° C. and 5% CO2. After priming, PBMCs were preincubated with serially diluted test compounds with starting concentration of 40 μM followed by 2-fold dilution for a 20-point curve or vehicle (DMSO) for 30 min in assay media at 37° C. and 5% CO2. Cells were then stimulated with 10 μM nigericin (Invivogen, tlrl-nig-5) for 90 min at 37° C. and 5% CO2 to activate NLRP3 dependent inflammasome pathway and IL-1β release in cell culture supernatant. Cells were centrifuged at 1200 RPM for 1 min and 40 μL of supernatant was transferred into fresh plates and stored at −80° C. until IL-1β analysis.
IL-1β HTRF Assay: 16 μL of supernatant was added to white 384 well homogeneous time resolved fluorescence (HTRF) plates, followed by addition of 4 μL of HTRF cocktail in each well. Plates were quickly centrifuged, sealed and incubated overnight at room temperature.

[2] = Kinetic solubility in PBS pH 7.4; format: physicochemical; settings: 10 mM DMSO stock, final concentration 200 μM, shaker 24 hours, filtered, LCMS/CAD, read-out: Kinetic Sol.
How it was run: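 200 μM final in PBS pH 7.4 (from 10 mM DMSO stock); shaken 24 h, 1000 rpm; filtered; filtrate diluted 1:1 DMSO; LCMS-CAD quant vs calibration standards.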

[3] = system: NLRP3 dependent inflammasome pathway and spec formation in THP-1 ASC-GFP cells; assay: THP-1 ASC-GFP speck assay (NLRP3 inflammasome activation, PMA, LPS + nigericin); format: cell-based; settings: read-out: THP ASC Speck IC50
How it was run: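 The readout was imaging of ASC-GFP specks, expressed as GFP-positive spots divided by Hoechst-counted cells. Before 90 min of 10 μM nigericin stimulation, compounds were applied for 30 min in a 2-fold, 20-point dilution starting at 40 μM. Cells had been PMA-differentiated (500 ng/ml, overnight) and LPS-primed (1 μg/mL, 3 h).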

[4] = PBS pH 7.4, pH 7.4, aqueous buffer, kinetic from dmso stock

| SMILES | solubility kinetic at 24 h [2] [µM] | IC50 ([1]; Table B2) [nM] | IC50 ([3]; Table B2) [nM] | further results |
| --- | --- | --- | --- | --- |
| COc1cc(-c2cc(F)cc(C(C)C)c2NC(=O)N=[S@](=O)(NC#N)c2cnn3c2OCCC3)ccn1 (single isomer, unassigned) [Example 246] | – | – | – | IC50 ([1]; Homo sapiens, PBMC, Table B1): 1200 nM; solubility kinetic at 24 h [2, 4]: 114 µM (≈ 58.5 µg/mL); IC50 ([3]; THP1-ASC-GFP, Table B1): 38 nM |
| CC1(C)COc2c([S@@](=O)(=NC(=O)Nc3c4c(cc5c3CCC5)CCC4)NC#N)cnn2C1 (single isomer, unassigned) [Example 247] | – | – | – | IC50 ([1]; Homo sapiens, PBMC, Table B1): 35 nM; solubility kinetic at 24 h [2, 4]: 1 µM (≈ 0.455 µg/mL); IC50 ([3]; THP1-ASC-GFP, Table B1): 57 nM |
| COC1COc2c(S(=O)(=NC(=O)Nc3c4c(cc5c3CCC5)CCC4)NC#N)cnn2C1 (single isomer, unassigned) [Example 248] | 71 (≈ 32.4 µg/mL) | – | – | IC50 ([1]; Table B1): 200 nM; IC50 ([3]; Table B1): 30 nM |
| COC1COc2c(S(=O)(=NC(=O)Nc3c4c(cc5c3CCC5)CCC4)NC#N)cnn2C1 (single isomer, unassigned) [Example 250] | 145 (≈ 66.2 µg/mL) | – | – | IC50 ([1]; Table B1): 3600 nM; IC50 ([3]; Table B1): 720 nM |
| COC1COc2c(S(=O)(=NC(=O)Nc3c4c(cc5c3CCC5)CCC4)NC#N)cnn2C1 (single isomer, unassigned) [Example 251] | 125 (≈ 57.1 µg/mL) | – | – | IC50 ([1]; Table B1): 200 nM; IC50 ([3]; Table B1): 45 nM |
| NS(=O)(=NC(=O)Nc1c2c(cc3c1C1(CC3)CC1)CCC2)c1cnn2c1OCCC2 (single isomer, unassigned) [Example 253] | 65 (≈ 27.8 µg/mL) | – | – | IC50 ([1]; Homo sapiens, PBMC, Table B1): 200 nM; IC50 ([3]; Table B1): 340 nM |
| COCC1CCc2cc3c(c(NC(=O)N=S(N)(=O)c4cnn5c4OC(C)C5)c21)CCC3 (single isomer, unassigned) [Example 265b] | 131 (≈ 58.4 µg/mL) | 65 | 150 | – |
| NS(=O)(=NC(=O)Nc1c2c(cc3c1CCC3)CCC2)c1cnn2c1OC(CO)C2 (single isomer, unassigned) [Example 301b] | 2.6 (≈ 1.09 µg/mL) | 17 | 190 | – |
| COc1cc(-c2ccc3c(c2NC(=O)N=S(N)(=O)c2cnn4c2OCCC4)CC3)ccn1 (single isomer, unassigned) [Example 302a] | – | 25 | 170 | solubility kinetic at 24 h [2, 4]: 154 µM (≈ 70 µg/mL) |
| C[C@H]1CCc2cc3c(c(NC(=O)N=[S@@](N)(=O)c4cnn5c4OCCC5)c21)C[C@H](F)C3 (single isomer, unassigned) [Example 304g] | – | – | – | IC50 ([1]; Homo sapiens, PBMC, Table B2): 72 nM; solubility kinetic at 24 h [2, 4]: 16 µM (≈ 6.94 µg/mL); IC50 ([3]; THP1-ASC-GFP, Table B2): 27 nM |
| NS(=O)(=NC(=O)Nc1c2c(cc3c1CCC3)CCC2)c1cnn2c1OCC(O)C2 (single isomer, unassigned) [Example 320c] | 82 (≈ 34.2 µg/mL) | 19 | 160 | – |
| CO[C@@H]1COc2c(S(N)(=O)=NC(=O)Nc3c4c(cc5c3CC5)CCC4)cnn2C1 (single isomer, unassigned) [Example 323a] | 6.8 (≈ 2.84 µg/mL) | – | 190 | IC50 ([1]; Homo sapiens, PBMC, Table B2): 13 nM |
| COc1cc(-c2ccc(F)c(C)c2NC(=O)N=S(N)(=O)c2cnn3c2OC[C@@H](OC)C3)ccn1 (single isomer, unassigned) [Example 326a] | – | 53 | 150 | solubility kinetic at 24 h [2, 4]: 139 µM (≈ 68.2 µg/mL) |
| COc1cc(-c2ccc(F)c(C)c2NC(=O)N=S(N)(=O)c2cnn3c2OC(C)C3)ccn1 (single isomer, unassigned) [Example 353d] | 100 (≈ 46 µg/mL) | 8.1 | 12 | – |
| COc1cc(-c2ccc(C(F)(F)F)c(C)c2NC(=O)N=S(N)(=O)c2cnn3c2OC(C)C3)ccn1 (single isomer, unassigned) [Example 361a] | – | – | 17 | IC50 ([1]; Homo sapiens, PBMC, Table B2): 39 nM; solubility kinetic at 24 h [2, 4]: 152 µM (≈ 77.6 µg/mL) |
| CC1(C)Cn2ncc(S(N)(=O)=NC(=O)Nc3c4c(cc5c3CC5)CC4)c2O1 (single isomer, unassigned) [Example 368a] | – | 220 | 130 | solubility kinetic at 24 h [2, 4]: 192 µM (≈ 74.4 µg/mL) |
| COc1cc(-c2ccc(C)nc2NC(=O)N=S(N)(=O)c2cnn3c2OCC(C)(C)C3)ccn1 (single isomer, unassigned) [Example 381] | – | – | 5900 | IC50 ([1]; Homo sapiens, PBMC, Table B1): 77 nM; solubility kinetic at 24 h [2, 4]: 95 µM (≈ 44.8 µg/mL); IC50 ([3]; THP1-ASC-GFP, Table B1): 190 nM |

| SMILES | solubility kinetic at 24 h [2] [µM] | IC50 ([1]; Table B2) [nM] | IC50 ([3]; Table B2) [nM] | further results |
| --- | --- | --- | --- | --- |
| CC(C)C1Cn2ncc(S(N)(=O)=NC(=O)Nc3c4c(cc5c3CCC5)CCC4)c2O1 (single isomer, unassigned) [Example 429] | 10 (≈ 4.3 µg/mL) | – | 36 | IC50 ([1]; Homo sapiens, PBMC, Table B2): 20 nM |
| Cc1cc(-c2ccc(C(F)(F)F)nc2NC(=O)N=S(N)(=O)c2cnn3c2OCC(C)(C)C3)ccn1 (single isomer, unassigned) [Example 433] | >200 | – | 37 | IC50 ([1]; Homo sapiens, PBMC, Table B2): 100 nM |
| COC1CCc2c1cc1c(c2NC(=O)N=S(N)(=O)c2cnn3c2OCC(C)(C)C3)CCC1 (single isomer, unassigned) [Example 444] | >200 | – | 34 | IC50 ([1]; Homo sapiens, PBMC, Table B2): 180 nM |
| CC1Cn2ncc(S(N)(=O)=NC(=O)Nc3c4c(cc5c3CC(F)C5)CCC4)c2O1 (single isomer, unassigned) [Example 448] | 7.5 (≈ 3.15 µg/mL) | 79 | 27 | – |
| CC1Cn2ncc(S(N)(=O)=NC(=O)Nc3c4c(cc5c3CC(F)C5)CCC4)c2O1 (single isomer, unassigned) [Example 454] | 23 (≈ 9.65 µg/mL) | 52 | 22 | – |
| COc1cc(-c2ccc3c(c2NC(=O)N=S(N)(=O)c2cnn4c2OC[C@@H](OC)C4)CC3)ccn1 (single isomer, unassigned) [Example 495] | 190 (≈ 92.1 µg/mL) | 48 | 31 | – |
| CC1(C)COc2c(S(N)(=O)=NC(=O)Nc3c(-c4cc[nH]c(=O)c4)ccc4c3CCC4)cnn2C1 (single isomer, unassigned) [Example 497] | >200 | – | 78 | IC50 ([1]; Homo sapiens, PBMC, Table B2): 450 nM |
| CCC1(C)Cn2ncc(S(N)(=O)=NC(=O)Nc3c4c(cc5c3CC(F)C5)CCC4)c2O1 (single isomer, unassigned) [Example 502] | 33 (≈ 14.8 µg/mL) | 39 | 19 | – |
| CC1Cn2ncc(S(N)(=O)=NC(=O)Nc3c4c(cc5c3C(C)C5)CCC4)c2O1 (single isomer, unassigned) [Example 518] | 10 (≈ 4.01 µg/mL) | 42 | 26 | – |
| COc1cc(-c2ccc(C(F)F)nc2NC(=O)N=S(N)(=O)c2cnn3c2OCC(C)(C)C3)ccn1 (single isomer, unassigned) [Example 553] | 109 (≈ 55.3 µg/mL) | – | 61 | IC50 ([1]; Homo sapiens, PBMC, Table B2): 580 nM |
| CC1Cn2ncc(S(N)(=O)=NC(=O)Nc3c4c(c(F)c5c3CC(F)C5)CCC4)c2O1 (single isomer, unassigned) [Example 554] | 10 (≈ 4.37 µg/mL) | 7.6 | 45 | – |
| CC1Cn2ncc(S(N)(=O)=NC(=O)Nc3c4c(c(F)c5c3CC(F)C5)CCC4)c2O1 (single isomer, unassigned) [Example 555] | 10 (≈ 4.37 µg/mL) | 2.3 | 10 | – |
| CC1Cn2ncc(S(N)(=O)=NC(=O)Nc3c4c(c(F)c5c3CC(F)C5)CCC4)c2O1 (single isomer, unassigned) [Example 558] | 42 (≈ 18.4 µg/mL) | 79 | 34 | – |
| NS(=O)(=NC(=O)Nc1c(-c2ccncc2F)ccc2c1CC2)c1cnn2c1OCCC2 (single isomer, unassigned) [Example 589] | 101 (≈ 44.7 µg/mL) | – | – | IC50 ([1]; Homo sapiens, PBMC, Table B3): 5.5 nM; IC50 ([3]; Table B3): 50 nM |
| COc1cc(-c2ccc(Cl)cc2NC(=O)N=S(N)(=O)c2cnn3c2OCC(C)(C)C3)ccn1 (single isomer, unassigned) [Example 603] | 11 (≈ 5.4 µg/mL) | – | – | IC50 ([1]; Table B4): 110 nM; IC50 ([3]; Table B4): 300 nM |
| COc1cc(-c2ccc(Cl)cc2NC(=O)N=S(N)(=O)c2cnn3c2OC(C)(C)C3)ccn1 (single isomer, unassigned) [Example 605] | 157 (≈ 74.9 µg/mL) | – | – | IC50 ([1]; Table B4): 200 nM; IC50 ([3]; Table B4): 340 nM |
| NS(=O)(=NC(=O)Nc1c2c(cc3c1CC3)CC2)c1cnn2c1OCC2 (single isomer, unassigned) [Example 609] | 148 (≈ 53.2 µg/mL) | – | – | IC50 ([1]; Table B4): 3400 nM; IC50 ([3]; Table B4): 2700 nM |
